Experimental data published in patent EP4603105A1, “PHARMACEUTICAL COMPOSITION CONTAINING CYCLIC COMPOUND HAVING SELECTIVE KRAS INHIBITORY EFFECT AGAINST HRAS AND NRAS” (CHUGAI SEIYAKU KABUSHIKI KAISHA, priority 2022, dated 2024).
Each block holds one molecule with its values, some of them ahead of it.

Columns and labels:
[1] = target: GDP-bound KRAS wild-type protein (Homo sapiens, UniProt P01116); experiment: Binding to KRAS by surface plasmon resonance (SPR), dissociation constant KD; conditions: Single Cycle Kinetics, 1:1 binding model
Summary of the method: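 Compound binding is evaluated by SPR single-cycle kinetics, with concentrations added intermittently from low to high for 75 s each. Target surfaces carry GDP-loaded biotinylated Avi-RAS at about 100–300 RU, regenerated after each cycle; temperature 30°C. A 1:1 binding model gives KD.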

[2] = target: GDP-bound NRAS wild-type protein (Homo sapiens, UniProt P01111); experiment: Binding to NRAS by surface plasmon resonance (SPR), KD and KD ratio to KRAS; conditions: ratio of KD with respect to GDP-bound NRAS wild-type protein to KD with respect to KRAS
Summary of the method: (§1)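 SPR, 30°C: Avi-biotin RAS·GDP captured via Biotin CAPture (~100–300 RU); running buffer HBS pH 7.4, 1 mM DTT, 10 mM MgCl2, 0.01% Tween 20, 10 µM GDP, 4% DMSO. Single-cycle kinetics, 100 µL/min, 75 s injections; 1:1 model → KD.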

HRAS wild-type protein = HRAS wild-type protein (Homo sapiens, UniProt P01112); experiment: Binding to HRAS by surface plasmon resonance (SPR), KD and KD ratio to KRAS; conditions: ratio of KD with respect to HRAS wild-type protein to KD with respect to KRAS
Summary of the method: as §1

[3] = tested on: human lung cancer strain NCI-H441; experiment: NCI-H441 cell proliferation inhibitory activity (CellTiter-Glo, 4 days); type: cell-based; conditions: 50% proliferation inhibitory concentration, four days, read-out: NCl-H441 IC50
Summary of the method: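 Proliferation was scored by […] measured after the reagent was added to cultures kept at 37°C in 5% carbon dioxide.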

Sequence of GDP-bound KRAS wild-type protein (P01116 1-188 isoform P01116-2): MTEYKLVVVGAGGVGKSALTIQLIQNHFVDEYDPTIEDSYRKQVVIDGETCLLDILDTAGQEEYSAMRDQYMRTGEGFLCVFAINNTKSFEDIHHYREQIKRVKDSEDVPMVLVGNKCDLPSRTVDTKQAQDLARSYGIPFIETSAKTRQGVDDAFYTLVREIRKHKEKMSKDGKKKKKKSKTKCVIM
Sequence of HRAS wild-type protein (P01112 whole entry): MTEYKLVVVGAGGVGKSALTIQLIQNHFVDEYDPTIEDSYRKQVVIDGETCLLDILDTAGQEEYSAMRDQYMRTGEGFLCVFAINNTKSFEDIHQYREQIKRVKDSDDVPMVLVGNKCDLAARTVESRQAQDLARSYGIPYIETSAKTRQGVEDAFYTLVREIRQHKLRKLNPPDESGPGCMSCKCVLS
Sequence of GDP-bound NRAS wild-type protein (P01111 whole entry): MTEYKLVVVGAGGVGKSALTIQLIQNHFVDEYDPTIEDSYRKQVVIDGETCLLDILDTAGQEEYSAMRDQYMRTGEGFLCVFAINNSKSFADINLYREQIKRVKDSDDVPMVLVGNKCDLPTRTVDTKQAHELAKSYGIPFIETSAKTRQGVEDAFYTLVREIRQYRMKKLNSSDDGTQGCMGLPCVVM

SMILES: CCO[C@@H]1C[C@H]2C(=O)NC3(CCC3)C(=O)N(C)[C@@H](C3CCCC3)C(=O)N(C)[C@H](C(=O)N3CCOCC3)CC(=O)N(C)[C@@H](CC(C)C)C(=O)N[C@@H]([C@@H](C)CC)C(=O)N3CC[C@H]3C(=O)N(C)[C@H]3CC[C@@H](C)CN(C3=O)[C@@H](Cc3ccc(C(F)(F)F)cc3)C(=O)N(C)CC(=O)N[C@@H](CCc3ccc(C(F)(F)F)c(Cl)c3)C(=O)N2C1 [PP1379]
Kd [1]: 0.29 nM
NRAS /KRAS [2]: A (a compound having 10 or more and less than 20 is denoted as A)
HRAS /KRAS (HRAS wild-type protein): B (a compound having 3 or more and less than 10 is denoted as B)
IC50 [3]: 10.3 nM

SMILES: CC[C@H](C)[C@@H]1NC(=O)[C@H](CC2CCC2)N(C)C(=O)C[C@@H](C(=O)N(C)C)N(C)C(=O)[C@H](C2CCCC2)N(C)C(=O)C2(CCCC2)NC(=O)[C@@H]2CCCN2C(=O)[C@H](CCc2cc(F)c(C(F)(F)F)c(F)c2)NC(=O)CN(C)C(=O)[C@H](Cc2ccc(C(F)(F)F)cc2)N2C[C@H](C)CC[C@@H](C2=O)N(C)C(=O)CN(C)C1=O [PP1386]
Kd [1]: 0.082 nM
NRAS /KRAS [2]: B (a compound having 3 or more and less than 10 is denoted as B)
HRAS /KRAS (HRAS wild-type protein): B (a compound having 3 or more and less than 10 is denoted as B)
IC50 [3]: 4.2 nM

SMILES: CCO[C@@H]1C[C@H]2C(=O)NC3(CCC3)C(=O)N(C)[C@@H](C3CCCC3)C(=O)N(C)[C@H](C(=O)N(C)C)CC(=O)N(C)[C@@H](CC3CCCC3)C(=O)N[C@@H]([C@@H](C)CC)C(=O)N(C)CC(=O)N(C)[C@H]3C/C=C\CCN(C3=O)[C@@H](Cc3ccc(F)cc3)C(=O)N(C)CC(=O)N[C@@H](CCc3ccc4sccc4c3)C(=O)N2C1 [PP1390]
Kd [1]: 1.1 nM
NRAS /KRAS [2]: A (a compound having 10 or more and less than 20 is denoted as A)
HRAS /KRAS (HRAS wild-type protein): A (a compound having 10 or more and less than 20 is denoted as A)
IC50 [3]: 305 nM

SMILES: CCO[C@@H]1C[C@H]2C(=O)NC3(CCC3)C(=O)N(C)[C@@H](C3CCCC3)C(=O)N(C)[C@H](C(=O)N3CCOCC3)CC(=O)N(C)[C@@H](CC3CCCC3)C(=O)N[C@@H]([C@@H](C)CC)C(=O)N(C)CC(=O)N(C)[C@H]3C/C=C\CCN(C3=O)[C@@H](Cc3ccc(C(F)(F)F)cc3)C(=O)N(C)CC(=O)N[C@@H](CCc3cc(F)c(C(F)(F)F)c(F)c3)C(=O)N2C1 [PP1393]
Kd [1]: 0.19 nM
NRAS /KRAS [2]: A (a compound having 10 or more and less than 20 is denoted as A)
HRAS /KRAS (HRAS wild-type protein): A (a compound having 10 or more and less than 20 is denoted as A)
IC50 [3]: 18.2 nM

SMILES: CCCC[C@H]1C(=O)N[C@@H]([C@@H](C)CC)C(=O)N(C)CC(=O)N(C)[C@H]2C/C=C\CCN(C2=O)[C@@H](Cc2ccc(C(F)(F)F)cc2)C(=O)N(C)CC(=O)N[C@@H](CCc2cc(F)c(C(F)(F)F)c(F)c2)C(=O)N2C[C@H](OCC)C[C@H]2C(=O)NC2(CCCC2)C(=O)N(C)[C@@H](C2CCCC2)C(=O)N(C)[C@H](C(=O)N(C)C)CC(=O)N1C [PP1397]
Kd [1]: 0.073 nM
NRAS /KRAS [2]: A (a compound having 10 or more and less than 20 is denoted as A)
HRAS /KRAS (HRAS wild-type protein): A (a compound having 10 or more and less than 20 is denoted as A)
IC50 [3]: 3.7 nM

SMILES: CCCOC[C@H]1C(=O)N[C@@H]([C@@H](C)CC)C(=O)N(C)CC(=O)N(C)[C@H]2C/C=C\CCN(C2=O)[C@@H](Cc2ccc(C(F)(F)F)cc2)C(=O)N(C)CC(=O)N[C@@H](CCc2cc(F)c(C(F)(F)F)c(F)c2)C(=O)N2C[C@H](OCC)C[C@H]2C(=O)NC2(CC(C)(C)C2)C(=O)N(C)[C@@H](C2CCCC2)C(=O)N(C)[C@H](C(=O)N(C)C)CC(=O)N1C [PP1398]
Kd [1]: 0.032 nM
NRAS /KRAS [2]: A (a compound having 10 or more and less than 20 is denoted as A)
HRAS /KRAS (HRAS wild-type protein): A (a compound having 10 or more and less than 20 is denoted as A)
IC50 [3]: 2.3 nM

SMILES: CCCOC[C@H]1C(=O)N[C@@H]([C@@H](C)CC)C(=O)N(C)CC(=O)N(C)[C@H]2C/C=C\CCN(C2=O)[C@@H](Cc2ccc(C(F)(F)F)cc2)C(=O)N(C)CC(=O)N[C@@H](CCc2cc(F)c(C(F)(F)F)c(F)c2)C(=O)N2C[C@H](OCC)C[C@H]2C(=O)NC2(CCCC2)C(=O)N(C)[C@@H](C2CCCC2)C(=O)N(C)[C@H](C(=O)N2CCCC2)CC(=O)N1C [PP1399]
Kd [1]: 0.19 nM
NRAS /KRAS [2]: A (a compound having 10 or more and less than 20 is denoted as A)
HRAS /KRAS (HRAS wild-type protein): A (a compound having 10 or more and less than 20 is denoted as A)
IC50 [3]: 18.8 nM

SMILES: CC[C@H](C)[C@@H]1NC(=O)[C@H](CC2CC2)N(C)C(=O)C[C@@H](C)N(C)C(=O)[C@H](C2CCCC2)N(C)C(=O)C2(CCC2)NC(=O)[C@H](CCC(F)F)N(C)C(=O)[C@H](CCc2cc(F)c(C(F)(F)F)c(F)c2)NC(=O)CN(C)C(=O)[C@H](Cc2ccc(C(F)(F)F)cc2)N2CC/C=C\C[C@@H](C2=O)N(C)C(=O)CN(C)C1=O [PP1404]
Kd [1]: 4.8 nM
NRAS /KRAS [2]: A (a compound having 10 or more and less than 20 is denoted as A)
HRAS /KRAS (HRAS wild-type protein): A (a compound having 10 or more and less than 20 is denoted as A)
IC50 [3]: 498 nM

SMILES: CC[C@H](C)[C@@H]1NC(=O)[C@H](CC2CC2)N(C)C(=O)C[C@@H](C)N(C)C(=O)[C@H](C2CCCC2)N(C)C(=O)C2(CCC2)NC(=O)[C@H](CC(F)F)N(C)C(=O)[C@H](CCc2cc(F)c(C(F)(F)F)c(F)c2)NC(=O)CN(C)C(=O)[C@H](Cc2ccc(C(F)(F)F)cc2)N2CC/C=C\C[C@@H](C2=O)N(C)C(=O)CN(C)C1=O [PP1405]
Kd [1]: 8.5 nM
NRAS /KRAS [2]: A (a compound having 10 or more and less than 20 is denoted as A)
HRAS /KRAS (HRAS wild-type protein): A (a compound having 10 or more and less than 20 is denoted as A)
IC50 [3]: 466 nM

SMILES: CCO[C@@H]1C[C@H]2C(=O)NC3(CCC3)C(=O)N(C)[C@@H](C3CCCC3)C(=O)N(C)[C@H](C(=O)N(C)C)CC(=O)N(C)[C@@H](CC3CC3)C(=O)N[C@@H]([C@@H](C)CC)C(=O)N(C)CC(=O)N(C)[C@H]3C/C=C\CCN(C3=O)[C@@H](Cc3ccc(C)cc3)C(=O)N(C)CC(=O)N[C@@H](CCc3cc(F)c(C(F)(F)F)c(F)c3)C(=O)N2C1 [PP1407]
Kd [1]: 0.074 nM
NRAS /KRAS [2]: A (a compound having 10 or more and less than 20 is denoted as A)
HRAS /KRAS (HRAS wild-type protein): A (a compound having 10 or more and less than 20 is denoted as A)
IC50 [3]: 18.7 nM

Further lines, with some results ahead:

Kd [1]: 0.087 nM
IC50 [3]: 5.8 nM
SMILES: CCO[C@@H]1C[C@H]2C(=O)NC3(CCCC3)C(=O)N(C)[C@@H](C3CCCC3)C(=O)N(C)[C@H](C(=O)N3CCOCC3)CC(=O)N(C)[C@@H](CC)C(=O)N[C@@H]([C@@H](C)CC)C(=O)N(C)CC(=O)N(C)[C@H]3CC[C@@H](C)CN(C3=O)[C@@H](Cc3ccc(C(F)(F)F)cc3)C(=O)N(C)CC(=O)N[C@@H](CCc3ccc(C(F)(F)F)c(Cl)c3)C(=O)N2C1 [PP1377]
NRAS /KRAS [2]: B (a compound having 3 or more and less than 10 is denoted as B)
HRAS /KRAS (HRAS wild-type protein): B (a compound having 3 or more and less than 10 is denoted as B)

Kd [1]: 0.081 nM
IC50 [3]: 6.6 nM
SMILES: CCO[C@@H]1C[C@H]2C(=O)NC3(CCC3)C(=O)N(C)[C@@H](C3CCCC3)C(=O)N(C)[C@H](C(=O)N3CCOCC3)CC(=O)N(C)[C@@H](CC)C(=O)N[C@@H]([C@@H](C)CC)C(=O)N(C)CC(=O)N(C)[C@H]3CC[C@@H](C)CN(C3=O)[C@@H](Cc3ccc(C(F)(F)F)cc3)C(=O)N(C)CC(=O)N[C@@H](CCc3ccc(C(F)(F)F)c(Cl)c3)C(=O)N2C1 [PP1378]
NRAS /KRAS [2]: B (a compound having 3 or more and less than 10 is denoted as B)
HRAS /KRAS (HRAS wild-type protein): C (A compound having a KD ratio of 0.1 or more and less than 3 is denoted as C)

Kd [1]: 1.6 nM
IC50 [3]: 271 nM
SMILES: CCO[C@@H]1C[C@H]2C(=O)NC3(CCC3)C(=O)N(C)[C@@H](C3CCCC3)C(=O)N(C)[C@H](C(=O)N3CCCC3)CC(=O)N(C)[C@@H](CC3CCCC3)C(=O)N[C@@H]([C@@H](C)CC)C(=O)N(C)CC(=O)N(C)[C@H]3C/C=C\CCN(C3=O)[C@@H](Cc3ccc(F)cc3)C(=O)N(C)CC(=O)N[C@@H](CCc3ccc4sccc4c3)C(=O)N2C1 [PP1391]
NRAS /KRAS [2]: A (a compound having 10 or more and less than 20 is denoted as A)
HRAS /KRAS (HRAS wild-type protein): A (a compound having 10 or more and less than 20 is denoted as A)

Kd [1]: 0.26 nM
IC50 [3]: 34.4 nM
SMILES: CCCOC[C@H]1C(=O)N[C@@H]([C@@H](C)CC)C(=O)N(C)CC(=O)N(C)[C@H]2C/C=C\CCN(C2=O)[C@@H](Cc2ccc(C)cc2)C(=O)N(C)CC(=O)N[C@@H](CCc2cc(F)c(C(F)(F)F)c(F)c2)C(=O)N2C[C@H](OCC)C[C@H]2C(=O)NC2(CCCC2)C(=O)N(C)[C@@H](C2CCCC2)C(=O)N(C)[C@H](C(=O)N2CCCC2)CC(=O)N1C [PP1401]
NRAS /KRAS [2]: A (a compound having 10 or more and less than 20 is denoted as A)
HRAS /KRAS (HRAS wild-type protein): A (a compound having 10 or more and less than 20 is denoted as A)

Kd [1]: 0.3 nM
IC50 [3]: 82 nM
SMILES: CC[C@H](C)[C@@H]1NC(=O)[C@H](CC2CC2)N(C)C(=O)C[C@@H](C(=O)N(C)C)N(C)C(=O)[C@H](C2CCCC2)N(C)C(=O)C2(CCC2)NC(=O)[C@H](CCC(F)F)N(C)C(=O)[C@H](CCc2cc(F)c(C(F)(F)F)c(F)c2)NC(=O)CN(C)C(=O)[C@H](Cc2ccc(C(F)(F)F)cc2)N2CC/C=C\C[C@@H](C2=O)N(C)C(=O)CN(C)C1=O [PP1402]
NRAS /KRAS [2]: A (a compound having 10 or more and less than 20 is denoted as A)
HRAS /KRAS (HRAS wild-type protein): A (a compound having 10 or more and less than 20 is denoted as A)
